Test results from PubChem BioAssay AID248 (DTP/NCI, 2004).
Where “and” joins values, the source holds several entries; their conditions need not be identical. Identical values can stand only once. Toxic doses and inconclusive results are not listed. Rule as the data show it: active = T/C of 150% or more; inactive = T/C below 125%.

Tested on: L1210 leukemia ip in BDF1 mice, survival T/C
Test: NCI In Vivo Anticancer Drug Screen. Data for tumor model L1210 Leukemia (intraperitoneal) in B6D2F1 (BDF1) mice
Settings: endpoint: mean survival time, higher = longer survival
Outline: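 Transplanted-tumor mice were given test agent; controls received vehicle only. Survival readings from the two groups were divided (treated over control).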

[1] = dose: 75.0 mg/kg/injection, schedule: Q01DX009 (ip), vehicle: saline
[2] = dose: 100.0 mg/kg/injection, schedule: Q01DX009 (ip), vehicle: Klucel (hydroxypropylcellulose) (HPC)
[3] = dose: 100.0 mg/kg/injection, schedule: Q04DX002 (ip), vehicle: Klucel (hydroxypropylcellulose) (HPC)
[4] = dose: 200.0 mg/kg/injection, schedule: Q01DX009 (ip), vehicle: Klucel (hydroxypropylcellulose) (HPC)
[5] = dose: 400.0 mg/kg/injection, schedule: Q01DX009 (ip), vehicle: Klucel (hydroxypropylcellulose) (HPC)
[6] = dose: 100.0 mg/kg/injection, schedule: Q04DX003 (ip), vehicle: saline
[7] = dose: 200.0 mg/kg/injection, schedule: Q04DX003 (ip), vehicle: saline
[8] = dose: 50.0 mg/kg/injection, schedule: Q01DX009 (ip), vehicle: saline with Tween-80
[9] = dose: 100.0 mg/kg/injection, schedule: Q01DX009 (ip), vehicle: saline with Tween-80
[10] = dose: 200.0 mg/kg/injection, schedule: Q01DX009 (ip), vehicle: saline with Tween-80
[11] = dose: 200.0 mg/kg/injection, schedule: Q04DX002 (ip), vehicle: Klucel (hydroxypropylcellulose) (HPC)
[12] = dose: 400.0 mg/kg/injection, schedule: Q04DX002 (ip), vehicle: Klucel (hydroxypropylcellulose) (HPC)
[13] = dose: 100.0 mg/kg/injection, schedule: Q01DX001 (ip), vehicle: carboxymethylcellulose (CMC)
[14] = dose: 200.0 mg/kg/injection, schedule: Q01DX001 (ip), vehicle: carboxymethylcellulose (CMC)
[15] = dose: 400.0 mg/kg/injection, schedule: Q01DX001 (ip), vehicle: carboxymethylcellulose (CMC)
[16] = dose: 100.0 mg/kg/injection, schedule: Q04DX002 (ip), vehicle: saline with Tween-80
[17] = dose: 100.0 mg/kg/injection, schedule: Q04DX003 (ip), vehicle: saline with Tween-80
[18] = dose: 200.0 mg/kg/injection, schedule: Q04DX002 (ip), vehicle: saline with Tween-80
[19] = dose: 200.0 mg/kg/injection, schedule: Q04DX003 (ip), vehicle: saline with Tween-80
[20] = dose: 400.0 mg/kg/injection, schedule: Q04DX002 (ip), vehicle: saline with Tween-80
[21] = dose: 25.0 mg/kg/injection, schedule: Q04DX003 (ip), vehicle: Klucel (hydroxypropylcellulose) (HPC)
[22] = dose: 50.0 mg/kg/injection, schedule: Q04DX003 (ip), vehicle: Klucel (hydroxypropylcellulose) (HPC)
[23] = dose: 100.0 mg/kg/injection, schedule: Q01DX001 (ip), vehicle: Klucel (hydroxypropylcellulose) (HPC)
[24] = dose: 100.0 mg/kg/injection, schedule: Q04DX003 (ip), vehicle: Klucel (hydroxypropylcellulose) (HPC)
[25] = dose: 200.0 mg/kg/injection, schedule: Q01DX001 (ip), vehicle: Klucel (hydroxypropylcellulose) (HPC)
[26] = dose: 100.0 mg/kg/injection, schedule: Q01DX001 (ip), vehicle: saline
[27] = dose: 200.0 mg/kg/injection, schedule: Q01DX001 (ip), vehicle: saline
[28] = dose: 400.0 mg/kg/injection, schedule: Q01DX001 (ip), vehicle: saline
[29] = dose: 50.0 mg/kg/injection, schedule: Q01DX009 (ip), vehicle: Klucel (hydroxypropylcellulose) (HPC)

Measured: T/C

CCCCCCCSc1ccc(C(=O)O)cc1
inactive: dose: 37.5 mg/kg/injection, schedule: Q01DX009 (ip), vehicle: saline 91 % of control | dose: 75.0 mg/kg/injection, schedule: Q01DX001 (ip), vehicle: acetone 102 % of control | [1] 97 % of control | dose: 75.0 mg/kg/injection, schedule: Q04DX003 (ip), vehicle: acetone 102 % of control | dose: 150.0 mg/kg/injection, schedule: Q01DX001 (ip), vehicle: acetone 95 % of control | dose: 150.0 mg/kg/injection, schedule: Q01DX009 (ip), vehicle: saline 90 % of control | dose: 150.0 mg/kg/injection, schedule: Q04DX003 (ip), vehicle: acetone 102 % of control | dose: 300.0 mg/kg/injection, schedule: Q01DX001 (ip), vehicle: acetone 98 % of control | dose: 300.0 mg/kg/injection, schedule: Q04DX003 (ip), vehicle: acetone 102 % of control

N#C/C(=C\c1cccc2ccccc12)c1ccccc1
inactive: dose: 25.0 mg/kg/injection, schedule: Q04DX002 (ip), vehicle: Klucel (hydroxypropylcellulose) (HPC) 92 % of control | dose: 50.0 mg/kg/injection, schedule: Q04DX002 (ip), vehicle: Klucel (hydroxypropylcellulose) (HPC) 98 % of control | [2] 95 % of control | [3] 95 % of control | [4] 93 % of control | [5] 100 % of control

Cc1ccc(SSc2ccc(C)cc2)cc1
inactive: [1] 108 % of control | [6] 101 % of control | [7] 103 % of control | dose: 400.0 mg/kg/injection, schedule: Q04DX003 (ip), vehicle: saline 88 % of control

CCCCCCC1=NC(C)(C)CO1
inactive: dose: 25.0 mg/kg/injection, schedule: Q01DX009 (ip), vehicle: saline with Tween-80 102 % of control | [8] 97 % of control | dose: 50.0 mg/kg/injection, schedule: Q04DX003 (ip), vehicle: saline 99 % of control | [9] 102 % of control | [6] 97 % of control | [10] 102 % of control | [7] 91 % of control

Nc1ccc2cc(O)ccc2c1
inactive: [8] 94 % of control

CC(C)(C)c1ccc(SC(=O)Nc2cccc(Cl)c2Cl)cc1
inactive: [2] 96 % of control | [3] 92 % of control | [4] 103 % of control | [11] 92 % of control | [5] 100 % of control | [12] 95 % of control

CCOC(=O)c1ccc(Nc2nc3ccccc3o2)cc1
inactive: [13] 91 % of control | [14] 94 % of control | [15] 93 % of control

Cc1c(Cl)cccc1NC(=O)Nc1nccs1
inactive: dose: 50.0 mg/kg/injection, schedule: Q04DX003 (ip), vehicle: saline with Tween-80 103 % of control | [9] 101 % of control and 104 % of control | [16] 100 % of control and 103 % of control | [17] 101 % of control | [10] 100 % of control | [18] 95 % of control and 96 % of control | [19] 114 % of control | [20] 109 % of control

CCCCCCCc1cc2ccccc2c2c(N)nc(N)nc12
inactive: dose: 12.0 mg/kg/injection, schedule: Q04DX003 (ip), vehicle: Klucel (hydroxypropylcellulose) (HPC) 105 % of control | [21] 93 % of control | [22] 98 % of control | [23] 90 % of control | [24] 107 % of control | [25] 96 % of control

CCC(CC=C(C)C)(CC=C(C)C)c1ccncc1 (tested in a mixture with another compound)
inactive: [26] 97 % of control | [27] 102 % of control | [28] 97 % of control

CC(C)OC(=S)SSC(=S)OC(C)C
inactive: [29] 105 % of control | [26] 96 % of control | [2] 92 % of control | dose: 100.0 mg/kg/injection, schedule: Q04DX003 (ip), vehicle: other 107 % of control | [27] 100 % of control | [4] 90 % of control | dose: 200.0 mg/kg/injection, schedule: Q04DX003 (ip), vehicle: other 98 % of control | [28] 102 % of control

Nc1ccc(C(=O)N/N=C/C=C/c2ccccc2)cc1
inactive: [3] 105 % of control | [11] 96 % of control | [12] 99 % of control

Cc1ccc(NC(=O)c2ccco2)cc1Cl
inactive: [23] 93 % of control | [3] 102 % of control | [25] 89 % of control | [11] 118 % of control | dose: 400.0 mg/kg/injection, schedule: Q01DX001 (ip), vehicle: Klucel (hydroxypropylcellulose) (HPC) 105 % of control | [12] 123 % of control

O=C1C2=C(C(=O)C3=C1C1CCC3C1)C1CCC2C1
inactive: [16] 90 % of control | [20] 93 % of control

CC(C)=C(Cl)C(C)(C)C(=O)O
inactive: [17] 103 % of control | [19] 101 % of control | dose: 400.0 mg/kg/injection, schedule: Q04DX003 (ip), vehicle: saline with Tween-80 97 % of control

O=C(O)CSc1c([N+](=O)[O-])cc(C(F)(F)F)cc1[N+](=O)[O-]
inactive: [29] 101 % of control | [2] 101 % of control | [4] 95 % of control

N#CC(C#N)=Cc1ccc(C=C(C#N)C#N)cc1
inactive: [21] 98 % of control | [29] 103 % of control | [22] 98 % of control | [2] 86 % of control | [24] 98 % of control and 105 % of control | dose: 200.0 mg/kg/injection, schedule: Q04DX003 (ip), vehicle: Klucel (hydroxypropylcellulose) (HPC) 100 % of control | dose: 400.0 mg/kg/injection, schedule: Q04DX003 (ip), vehicle: Klucel (hydroxypropylcellulose) (HPC) 108 % of control

CCN1CC(=O)N(C)C1=S
inactive: dose: 50.0 mg/kg/injection, schedule: Q01DX001 (ip), vehicle: carboxymethylcellulose (CMC) 103 % of control | [13] 100 % of control | [14] 97 % of control | [15] 118 % of control

Cc1cccc(NC(=S)N2CCCCC2)c1
inactive: [16] 100 % of control | [18] 100 % of control | [20] 100 % of control

Nc1nc2n(n1)C(=O)C(=O)N2
inactive: dose: 100.0 mg/kg/injection, schedule: Q01DX005 (ip), vehicle: Klucel (hydroxypropylcellulose) (HPC) 109 % of control | [2] 101 % of control | [3] 101 % of control | dose: 200.0 mg/kg/injection, schedule: Q01DX005 (ip), vehicle: Klucel (hydroxypropylcellulose) (HPC) 98 % of control | [4] 104 % of control | [11] 96 % of control | dose: 400.0 mg/kg/injection, schedule: Q01DX005 (ip), vehicle: Klucel (hydroxypropylcellulose) (HPC) 95 % of control | [5] 96 % of control | [12] 96 % of control

CCOc1c[n+](C)c(/C=C/c2ccccc2)s1
inactive: dose: 5.0 mg/kg/injection, schedule: Q01DX001 (ip), vehicle: carboxymethylcellulose (CMC) 108 % of control | dose: 10.0 mg/kg/injection, schedule: Q01DX001 (ip), vehicle: carboxymethylcellulose (CMC) 97 % of control | dose: 20.0 mg/kg/injection, schedule: Q01DX001 (ip), vehicle: carboxymethylcellulose (CMC) 94 % of control | dose: 40.0 mg/kg/injection, schedule: Q01DX001 (ip), vehicle: carboxymethylcellulose (CMC) 103 % of control

O=C(Nc1ccc(Cl)c(Cl)c1)c1ccc(C(=O)Nc2ccc(Cl)c(Cl)c2)cc1
inactive: [2] 91 % of control | [4] 92 % of control | [5] 86 % of control

Brc1ccc([Si](c2ccccc2)(c2ccccc2)c2ccc(Br)cc2)cc1
inactive: [9] 101 % of control | [10] 93 % of control | dose: 400.0 mg/kg/injection, schedule: Q01DX009 (ip), vehicle: saline with Tween-80 89 % of control

Cc1ccc2c(ccc3cc(C)ccc32)c1
inactive: [3] 122 % of control | [11] 101 % of control | [12] 97 % of control

NCC(O)c1ccc(OCc2ccccc2)cc1 (configuration not stated)
inactive: [26] 94 % of control | [27] 103 % of control | [28] 108 % of control
